Results taken from article PMC12175894 (Science Advances, 2025).
Entries after “also recorded” stand apart in the source; their conditions may differ.

Tests used:
[1] = target: T1, 5-HT1AR wildtype (Homo sapiens, UniProt P08908); assay: GloSensor inhibition of cAMP accumulation in HEK293AΔGs; assay type: cell-based
T1 construct: host or cells: HEK293T, HEK293A, HEK293AΔGs, HEK293AΔGi/o, HEK293AΔARRB1/B2
T1 sequence (P08908 1-422): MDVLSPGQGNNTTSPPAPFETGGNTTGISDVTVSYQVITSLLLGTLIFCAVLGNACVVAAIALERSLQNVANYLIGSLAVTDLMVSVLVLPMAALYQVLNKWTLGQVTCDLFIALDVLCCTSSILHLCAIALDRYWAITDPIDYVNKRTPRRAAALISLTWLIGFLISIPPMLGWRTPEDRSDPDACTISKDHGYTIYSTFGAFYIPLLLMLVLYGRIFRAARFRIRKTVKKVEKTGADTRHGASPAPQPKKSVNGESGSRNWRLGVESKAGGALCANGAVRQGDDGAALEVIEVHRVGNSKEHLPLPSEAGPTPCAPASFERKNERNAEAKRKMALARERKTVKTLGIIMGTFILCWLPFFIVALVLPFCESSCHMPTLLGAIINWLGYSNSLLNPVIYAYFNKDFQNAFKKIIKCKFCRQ

[2] = target: T1, 5-HT1AR wildtype; assay: GloSensor cAMP accumulation in HEK293AΔGi/o; assay type: cell-based; details: for Emax: read-out: Emax [% ± SEM], cAMP accumulation
[3] = target: T1, 5-HT1AR wildtype; assay: β-arrestin 2 recruitment, enhanced bystander BRET in HEK293T with GRK2; assay type: cell-based; details: for Emax: HEK-293T, read-out: Emax [% ± SEM], β-arrestin 2 recruitment
[4] = target: T2, 5-HT1AR wt (Homo sapiens, UniProt P08908); assay: Radioligand competition, displacement of [3H]WAY100635; assay type: binding; details: fig. S1C, in words
T2 construct: host or cells: HEK293T, transient; membranes
T2 sequence (P08908 1-422): T1 sequence (P08908 1-422)

[5] = target: T3, 5-HT1AR (Homo sapiens, UniProt P08908); assay: BRET-based cAMP assay (CAMYEL biosensor) in CHO-K1 cells; assay type: cell-based; details: inhibition of cAMP accumulation, CAMYEL, fig. S1C, in words
T3 sequence (P08908 1-422): T1 sequence (P08908 1-422)

[6] = Metabolic stability with rat liver microsomes; assay type: in vitro ADME; details: after 1 h incubation
[7] = test system: male C56BL/6 mice; assay: 52°C hot plate; assay type: in vivo, mouse; details: wild-type mice, 10 mg/kg
[8] = test system: 5-HT1AR KO mice; assay: 52°C hot plate in 5-HT1AR KO mice; assay type: in vivo, mouse; details: 10 mg/kg
[9] = target: human WT 5-HT1AR with C-terminal ARMS2-PK2 (human) (UniProt P08908); assay: split reporter
[10] = read-out: Emax [% ± SEM], inhibition of cAMP accumulation

Question: For `O=C1CCc2ccc(OCCCCN3CCN(c4cccc(Cl)c4Cl)CC3)cc2N1` [aripiprazole], which Emax ([1]; read-out: Emax [% ± SEM], inhibition of cAMP accumulation, HEK293AΔGs, wildtype, relative to serotonin) is on record?
Answer: Its Emax is 90 ± 9%.

Question: What about the Emax [2] of the same compound?
Answer: Its Emax is less than 5%.

Question: With `CCN(CC)C(=O)N[C@H]1C=C2c3cccc4[nH]cc(c34)C[C@H]2N(C)C1` [(S)-(-)lisuride, (S)-(−)-lisuride] as the compound, how does the “Emax [% ± SEM], β-arrestin 2 recruitment” value ([3]; HEK293T with GRK2, wildtype, relative to serotonin) read?
Answer: The value was 46 ± 3%.

Question: And the “Emax [% ± SEM], inhibition of cAMP accumulation” value ([1]; HEK293AΔGs, wildtype, relative to serotonin)?
Answer: Its value is 68 ± 4%.

Question: And the “Emax [% ± SEM], cAMP accumulation” value ([2]; HEK293AΔGi/o, wildtype, relative to serotonin)?
Answer: The value was 29 ± 4%.

Question: Which results are given for `COc1ccccc1OCCCNCCCOc1ccc2c(c1)NC(=O)CO2` [TA12]?
Answer: 5-HT1AR binding relative to ST171 (SAR study) [4]: reduced binding affinity; also recorded: attenuation of binding; potency and efficacy / receptor activation relative to ST171 (SAR study) [5]: attenuation of binding and receptor activation

Question: Which intact substrate remaining [6] does the source give for `CCCN(CCc1cccs1)[C@H]1CCc2c(O)cccc2C1` [rotigotine, reference compound] here?
Answer: Its intact substrate remaining is less than 15%.

Question: For `CSc1ccccc1OCCNCCCOc1ccc2c(c1)NC(=O)CO2` [TA48], which “potency and efficacy / receptor activation relative to ST171 (SAR study)” value [5] is on record?
Answer: Its value is “considerable reduction of potency and efficacy”.

Question: With `CN1CC[C@]23c4c5ccc(O)c4O[C@H]2[C@@H](O)C=C[C@H]3[C@H]1C5` [morphine] as the compound, how does the “response latency, 52°C hot plate” value [7] read?
Answer: The value was “significantly increased the response latency”.

Question: What about the “response latency, hot plate in 5-HT1AR KO mice” value [8] of the same compound?
Answer: The value was “significantly increased the response latency”.

Question: Which results are given for `O=C1Cc2cc(CCN3CCN(c4nsc5ccccc45)CC3)c(Cl)cc2N1` [ziprasidone]?
Answer: Emax [3]: < 5%; lower potency compared to ST171, Gi/o pathway ([1]; HEK293AΔGs): more than 70 fold; EC50 ([1]; HEK293AΔGs, wildtype, read-out: EC50 [nM ± SEM], inhibition of cAMP accumulation): 370 ± 140 nM; Emax [1, 10]: 57 ± 7%; Emax [2]: < 5%

Question: Which results are given for “β-arrestin 2 labeled with the enzyme acceptor (from UniProt P32121 1-409) (natural protein)”?
Answer: Emax of recruitment with ST171, elevated GRK2 (% of serotonin) [9]: 15%; Emax of recruitment with ST171, native GRK2 (% of serotonin) [9]: < 5%

Question: With `O=C1CC2(CCCC2)CC(=O)N1CCCCN1CCN(c2ncccn2)CC1` [buspirone] as the compound, how does the Emax [3] read?
Answer: The Emax was less than 5%.

Question: What about the Emax [1, 10] of the same compound?
Answer: The Emax was 58 ± 1%.

Question: And the Emax [2]?
Answer: Its Emax is less than 5%.
